Among the data in patent US20240299385A1 (ReWind Therapeutics NV, priority 2021, published 2024) are IC50 values, retold here.

The target in the assay is T1, human GPR17 receptor (Homo sapiens, UniProt Q13304).
T1 construct: host or cells: HEK-293
T1 sequence (Q13304 whole entry): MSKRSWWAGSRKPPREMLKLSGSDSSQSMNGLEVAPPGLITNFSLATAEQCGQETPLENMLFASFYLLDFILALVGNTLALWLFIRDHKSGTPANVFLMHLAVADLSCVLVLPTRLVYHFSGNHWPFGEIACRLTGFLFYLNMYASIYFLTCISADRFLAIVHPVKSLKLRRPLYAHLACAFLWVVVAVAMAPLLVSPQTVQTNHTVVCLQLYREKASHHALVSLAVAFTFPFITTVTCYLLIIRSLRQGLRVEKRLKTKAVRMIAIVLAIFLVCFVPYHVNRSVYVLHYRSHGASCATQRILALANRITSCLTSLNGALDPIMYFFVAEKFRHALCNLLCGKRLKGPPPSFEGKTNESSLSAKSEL
Kind of assay: Calcium mobilization functional assay (Fluo-8, FLIPR TETRA) in HEK-293 hGPR17 (Gα-q assay). The assay is classed as cell-based. The following applies: antagonism of MDL29,951 (~EC80) induced Ca2+ signal; cell line (HEK-293 hGPR17 or HEK-293 Suchi5 hGPR17) not given. In a few lines:
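Fluo-8-loaded HEK-293 hGPR17 cells (60 min dye loading, room temperature) were preincubated with compound for twenty minutes, then challenged with agonist MDL29,951 at ~EC80, 500 nM. Intracellular calcium release via Gα-q was recorded as FLIPR fluorescence for a further 2 minutes; compounds tested in duplicate.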
With `N#Cc1cc(F)c(NS(=O)(=O)c2c[nH]c(-c3ccc(F)cc3F)c2)cc1F` [Cpd 510, N-(4-cyano-2,5-difluorophenyl)-5-(2,4-difluorophenyl)-1H-pyrrole-3-sulfonamide], the IC50 (commonly the concentration that inhibits the measured activity by half) was less than 0.5 µM.

`Cc1cc(NS(=O)(=O)c2c[nH]c(-c3ccccc3F)c2)c(F)cc1C#N` [Cpd 511, N-(4-cyano-2-fluoro-5-methylphenyl)-5-(2-fluorophenyl)-1H-pyrrole-3-sulfonamide]: the IC50 was less than 0.5 µM.

Turning to `Cc1cc(NS(=O)(=O)c2c[nH]c(-c3cc(Cl)ccc3F)c2)c(F)cc1C#N` [Cpd 512, 5-(5-chloro-2-fluorophenyl)-N-(4-cyano-2-fluoro-5-methylphenyl)-1H-pyrrole-3-sulfonamide], the IC50 was less than 0.5 µM.

Take `Cc1cc(NS(=O)(=O)c2c[nH]c(-c3ccc(F)cc3)c2)c(F)cc1C#N` [Cpd 513, N-(4-cyano-2-fluoro-5-methylphenyl)-5-(4-fluorophenyl)-1H-pyrrole-3-sulfonamide]: the IC50 was 0.5 to 5 µM.

`Cc1cc(NS(=O)(=O)c2c[nH]c(-c3ccc(F)cc3F)c2)c(F)cc1C#N` [Cpd 514, N-(4-cyano-2-fluoro-5-methylphenyl)-5-(2,4-difluorophenyl)-1H-pyrrole-3-sulfonamide]: the IC50 lay in the range of 0.5 to 5 µM.

As for `O=S(=O)(Nc1cc(F)c(OC(F)F)cc1F)c1c[nH]c(-c2cccc(Cl)n2)c1` [Cpd 515, 5-(6-chloropyridin-2-yl)-N-[4-(difluoromethoxy)-2,5-difluorophenyl]-1H-pyrrole-3-sulfonamide], the IC50 is less than 0.5 µM.

As to `O=S(=O)(Nc1cc(F)c(OC(F)F)cc1F)c1c[nH]c(-c2cccc(Br)n2)c1` [Cpd 516, 5-(6-bromopyridin-2-yl)-N-[4-(difluoromethoxy)-2,5-difluorophenyl]-1H-pyrrole-3-sulfonamide], the IC50 is less than 0.5 µM.

Turning to `O=S(=O)(Nc1cc(F)c(C(F)(F)F)cc1F)c1c[nH]c(-c2cccc3ccoc23)c1` [Cpd 517, 5-(1-benzofuran-7-yl)-N-[2,5-difluoro-4-(trifluoromethyl)phenyl]-1H-pyrrole-3-sulfonamide], the IC50 lay within 0.5 to 5 µM.

For `COc1cscc1-c1cc(S(=O)(=O)Nc2cc(F)c(C(F)(F)F)cc2F)c[nH]1` [Cpd 518, N-[2,5-difluoro-4-(trifluoromethyl)phenyl]-5-(4-methoxythiophen-3-yl)-1H-pyrrole-3-sulfonamide], the IC50 lay within 0.5 to 5 µM.

In the case of `O=S(=O)(Nc1cc(F)c(C(F)(F)F)cc1F)c1c[nH]c(-c2cccc3c2OCC3)c1` [Cpd 519, N-[2,5-difluoro-4-(trifluoromethyl)phenyl]-5-(2,3-dihydro-1-benzofuran-7-yl)-1H-pyrrole-3-sulfonamide], the IC50 lay in the range of 0.5 to 5 µM.

As for `O=C1CCC(c2cc(S(=O)(=O)Nc3cc(F)c(C(F)(F)F)cc3F)c[nH]2)C1` (centres unmarked) [Cpd 520, N-(2,5-difluoro-4-(trifluoromethyl)phenyl)-5-(3-oxocyclopentyl)-1H-pyrrole-3-sulfonamide], the IC50 is 5 to 50 µM.

`CN(C)c1cccc(-c2cc(S(=O)(=O)Nc3ccc(C#N)cc3F)c[nH]2)c1` [Cpd 521, N-(4-cyano-2-fluorophenyl)-5-[3-(dimethylamino)phenyl]-1H-pyrrole-3-sulfonamide]: the IC50 was in the range of 5 to 50 µM.

For `N#Cc1cc(F)c(NS(=O)(=O)c2c[nH]c(-c3ccccc3F)c2)cc1Cl` [Cpd 522, N-(5-chloro-4-cyano-2-fluorophenyl)-5-(2-fluorophenyl)-1H-pyrrole-3-sulfonamide], the IC50 is less than 0.5 µM.

As to `N#Cc1cc(F)c(NS(=O)(=O)c2c[nH]c(-c3cc(Cl)ccc3F)c2)cc1Cl` [Cpd 523, N-(5-chloro-4-cyano-2-fluorophenyl)-5-(5-chloro-2-fluorophenyl)-1H-pyrrole-3-sulfonamide], the IC50 was less than 0.5 µM.

In the case of `N#Cc1cc(F)c(NS(=O)(=O)c2c[nH]c(-c3ccc(F)cc3)c2)cc1Cl` [Cpd 524, N-(5-chloro-4-cyano-2-fluorophenyl)-5-(4-fluorophenyl)-1H-pyrrole-3-sulfonamide], the IC50 lay in the range of 0.5 to 5 µM.

For the compound `N#Cc1cc(F)c(NS(=O)(=O)c2c[nH]c(-c3ccc(F)cc3F)c2)cc1Cl` [Cpd 525, N-(5-chloro-4-cyano-2-fluorophenyl)-5-(2,4-difluorophenyl)-1H-pyrrole-3-sulfonamide], the IC50 was in the range of 0.5 to 5 µM.

On to `O=S(=O)(Nc1cc(F)c(OC(F)F)cc1F)c1c[nH]c(-c2ccccc2Cl)c1` [Cpd 526, 5-(2-chlorophenyl)-N-[4-(difluoromethoxy)-2,5-difluorophenyl]-1H-pyrrole-3-sulfonamide], for which the IC50 is 0.5 to 5 µM.

`O=S(=O)(Nc1cc(F)c(Br)cc1F)c1c[nH]c(-c2cccc(Cl)n2)c1` [Cpd 527, N-(4-bromo-2,5-difluorophenyl)-5-(6-chloropyridin-2-yl)-1H-pyrrole-3-sulfonamide]: the half-inhibitory concentration (IC50) was less than 0.5 µM.

As to `O=S(=O)(Nc1cc(F)c(Br)cc1F)c1c[nH]c(-c2cccc(Br)n2)c1` [Cpd 528, N-(4-bromo-2,5-difluorophenyl)-5-(6-bromopyridin-2-yl)-1H-pyrrole-3-sulfonamide], the IC50 is less than 0.5 µM.

For `CCc1cc(NS(=O)(=O)c2c[nH]c(-c3ccccc3)c2)c(F)cc1C#N` [Cpd 529, N-(4-cyano-5-ethyl-2-fluorophenyl)-5-phenyl-1H-pyrrole-3-sulfonamide], the IC50 was less than 0.5 µM.

As for `COc1ccccc1-c1cc(S(=O)(=O)Nc2cc(F)c(OC(F)F)cc2F)c[nH]1` [Cpd 530, N-[4-(difluoromethoxy)-2,5-difluorophenyl]-5-(2-methoxyphenyl)-1H-pyrrole-3-sulfonamide], the IC50 is less than 0.5 µM.

As for `COc1c(F)cccc1-c1cc(S(=O)(=O)Nc2cc(F)c(OC(F)F)cc2F)c[nH]1` [Cpd 531, N-[4-(difluoromethoxy)-2,5-difluorophenyl]-5-(3-fluoro-2-methoxyphenyl)-1H-pyrrole-3-sulfonamide], the IC50 was less than 0.5 µM.

With `COc1ccccc1-c1cc(S(=O)(=O)Nc2cc(F)c(Br)cc2F)c[nH]1` [Cpd 532, N-(4-bromo-2,5-difluorophenyl)-5-(2-methoxyphenyl)-1H-pyrrole-3-sulfonamide], the IC50 was 0.5 to 5 µM.

In the case of `O=S(=O)(Nc1cc(F)c(Br)cc1F)c1c[nH]c(-c2ccccc2Cl)c1` [Cpd 533, N-(4-bromo-2,5-difluorophenyl)-5-(2-chlorophenyl)-1H-pyrrole-3-sulfonamide], the IC50 lay in the range of 0.5 to 5 µM.

With `O=S(=O)(Nc1cc(F)c(Br)cc1F)c1c[nH]c(-c2cccc3cccnc23)c1` [Cpd 534, N-(4-bromo-2,5-difluorophenyl)-5-quinolin-8-yl-1H-pyrrole-3-sulfonamide], the IC50 fell in the range of 0.5 to 5 µM.

As to `N#Cc1ccc(NS(=O)(=O)c2c[nH]cc2Cc2ccc(F)c(F)c2)c(F)c1` [Cpd 535, N-(4-cyano-2-fluorophenyl)-4-[(3,4-difluorophenyl)methyl]-1H-pyrrole-3-sulfonamide], the IC50 is less than 0.5 µM.

`COc1cc(Cc2c[nH]cc2S(=O)(=O)Nc2ccc(C#N)cc2F)ccc1F` [Cpd 536, N-(4-cyano-2-fluorophenyl)-4-[(4-fluoro-3-methoxyphenyl)methyl]-1H-pyrrole-3-sulfonamide]: the IC50 is less than 0.5 µM.

`O=S(=O)(Nc1cc(F)c(CO)cc1F)c1c[nH]c(-c2ccccc2)c1` [Cpd 537, N-[2,5-difluoro-4-(hydroxymethyl)phenyl]-5-phenyl-1H-pyrrole-3-sulfonamide]: the IC50 is 0.5 to 5 µM.

Regarding `Cc1ncc(-c2cc(S(=O)(=O)Nc3cc(F)c(C(F)(F)F)cc3F)c[nH]2)s1` [Cpd 538, N-[2,5-difluoro-4-(trifluoromethyl)phenyl]-5-(2-methyl-1,3-thiazol-5-yl)-1H-pyrrole-3-sulfonamide], the IC50 was 0.5 to 5 µM.

With `COc1sccc1-c1cc(S(=O)(=O)Nc2cc(F)c(C(F)(F)F)cc2F)c[nH]1` [Cpd 539, N-[2,5-difluoro-4-(trifluoromethyl)phenyl]-5-(2-methoxythiophen-3-yl)-1H-pyrrole-3-sulfonamide], the 50% inhibitory concentration (IC50) is less than 0.5 µM.

For the compound `Cn1cc2cccc(-c3cc(S(=O)(=O)Nc4cc(F)c(C(F)(F)F)cc4F)c[nH]3)c2n1` [Cpd 540, N-[2,5-difluoro-4-(trifluoromethyl)phenyl]-5-(2-methylindazol-7-yl)-1H-pyrrole-3-sulfonamide], the IC50 is 0.5 to 5 µM.

For the compound `N#Cc1cccc(-c2cc(S(=O)(=O)Nc3cc(F)c(Br)cc3F)c[nH]2)c1` [Cpd 541, N-(4-bromo-2,5-difluorophenyl)-5-(3-cyanophenyl)-1H-pyrrole-3-sulfonamide], the IC50 is less than 0.5 µM.

For `N#Cc1ccc(NS(=O)(=O)c2c[nH]c(-c3cccc(F)c3OC3CC3)c2)c(F)c1` [Cpd 542, N-(4-cyano-2-fluorophenyl)-5-(2-cyclopropyloxy-3-fluorophenyl)-1H-pyrrole-3-sulfonamide], the IC50 was less than 0.5 µM.

With `N#Cc1ccc(NS(=O)(=O)c2c[nH]c(-c3ncc(F)cc3F)c2)c(F)c1` [Cpd 543, N-(4-cyano-2-fluorophenyl)-5-(3,5-difluoropyridin-2-yl)-1H-pyrrole-3-sulfonamide], the IC50 was less than 0.5 µM.

As for `COc1c(F)cccc1-c1cc(S(=O)(=O)Nc2cc(F)c(Br)cc2F)c[nH]1` [Cpd 544, N-(4-bromo-2,5-difluorophenyl)-5-(3-fluoro-2-methoxyphenyl)-1H-pyrrole-3-sulfonamide], the IC50 was less than 0.5 µM.

For `N#Cc1ccc(NS(=O)(=O)c2c[nH]cc2Cc2ccc(F)c(Cl)c2)c(F)c1` [Cpd 545, 4-[(3-chloro-4-fluorophenyl)methyl]-N-(4-cyano-2-fluorophenyl)-1H-pyrrole-3-sulfonamide], the IC50 is less than 0.5 µM.

As to `N#Cc1ccc(NS(=O)(=O)c2c[nH]cc2Cc2cc(F)cc(F)c2)c(F)c1` [Cpd 546, N-(4-cyano-2-fluorophenyl)-4-[(3,5-difluorophenyl)methyl]-1H-pyrrole-3-sulfonamide], the IC50 was less than 0.5 µM.

On to `COc1cc(F)cc(Cc2c[nH]cc2S(=O)(=O)Nc2ccc(C#N)cc2F)c1` [Cpd 547, N-(4-cyano-2-fluorophenyl)-4-[(3-fluoro-5-methoxyphenyl)methyl]-1H-pyrrole-3-sulfonamide], for which the IC50 is 0.5 to 5 µM.
